Patent US20250109119A1, “AMPK AGONISTS AND METHODS OF USE THEREOF” (Evvia Therapeutics, Inc., priority 2023, published 2025)

Assays:
[1] = Blood Brain Barrier (BBB) data, brain/plasma ratio (Table B); type: in vivo; conditions: brain and plasma; calculated at a 3 hr time point; Table B column heads <0.1, 0.1-1, >1; cells list compound numbers
Method: Blood Brain Barrier (BBB) data was evaluated for compounds of the disclosure and the values are shown in Table B. Brain/plasma ratio was calculated at a 3 hr time point).

AMPK = assay: EC50 data of compounds of the disclosure (Table A; AMPK agonists); type: biochemical; conditions: cells list compound numbers

| Kp at 3 h [1] | EC50 (AMPK; Table A '>10 μM') [µM] | SMILES | further results |
| --- | --- | --- | --- |
| < 0.1 |  | COc1nc(N(C)C)ccc1-c1cc2c(C(=O)NO)c[nH]c2cc1Cl [compound 1001, 6-chloro-5-(6-(dimethylamino)-2-methoxypyridin-3-yl)-N-hydroxy-1H-indole-3-carboxamide] |  |
| > 1 |  | CONC(=O)c1c[nH]c2cc(Cl)c(-c3ccc(N(C)C)nc3OC)cc12 [compound 1003, 6-chloro-5-(6-(dimethylamino)-2-methoxypyridin-3-yl)-N-methoxy-1H-indole-3-carboxamide] | EC50 (AMPK; Table A column head '<100 nM'): < 0.1 µM |
|  |  | CONC(=O)c1c[nH]c2cc(F)c(-c3ccc(C4CCCCO4)cc3)c(F)c12 (stereo not shown) [compound 1007, 4,6-difluoro-N-methoxy-5-(4-(tetrahydro-2H-pyran-2-yl)phenyl)-1H-indole-3-carboxamide] | EC50 (AMPK; Table A column head '<100 nM'): < 0.1 µM |
| 0.1 to 1 |  | CCONC(=O)c1c[nH]c2cc(Cl)c(-c3ccc(N(C)C)nc3OC)cc12 [compound 1009, 6-chloro-5-(6-(dimethylamino)-2-methoxypyridin-3-yl)-N-ethoxy-1H-indole-3-carboxamide] |  |
| 0.1 to 1 |  | COCCONC(=O)c1c[nH]c2cc(Cl)c(-c3ccc(N(C)C)nc3OC)cc12 [compound 1011, 6-chloro-5-(6-(dimethylamino)-2-methoxypyridin-3-yl)-N-(2-methoxyethoxy)-1H-indole-3-carboxamide] |  |
|  | > 10 | COc1nc(N(C)C)ccc1-c1cc2c(C(=O)NOc3ccccc3)c[nH]c2cc1Cl [compound 1012, 6-chloro-5-(6-(dimethylamino)-2-methoxypyridin-3-yl)-N-phenoxy-1H-indole-3-carboxamide] |  |
| 0.1 to 1 |  | COc1nc(N(C)C)ccc1-c1cc2c(C(=O)NOCC3CC3)c[nH]c2cc1Cl [compound 1015, 6-chloro-N-(cyclopropylmethoxy)-5-(6-(dimethylamino)-2-methoxypyridin-3-yl)-1H-indole-3-carboxamide] |  |
|  | > 10 | CCOc1nc(N(C)C)ccc1-c1cc2c(C(=O)NOC)c[nH]c2cc1Cl [compound 1020, 6-chloro-5-(6-(dimethylamino)-2-ethoxypyridin-3-yl)-N-methoxy-1H-indole-3-carboxamide] |  |
|  | > 10 | CONC(=O)c1c[nH]c2cc(Cl)c(-c3ccc(N(C)C)nc3C(F)(F)F)cc12 [compound 1021, 6-chloro-5-(6-(dimethylamino)-2-(trifluoromethyl)pyridin-3-yl)-N-methoxy-1H-indole-3-carboxamide] |  |
|  | > 10 | CONS(=O)(=O)c1c[nH]c2cc(Cl)c(-c3ccc(N(C)C)nc3OC)cc12 [compound 1028, 6-chloro-5-(6-(dimethylamino)-2-methoxypyridin-3-yl)-N-methoxy-1H-indole-3-sulfonamide] |  |
|  | > 10 | CONC(=O)c1c[nH]c2cc(Cl)c(-c3ccc(N(C)C)nc3O)cc12 [compound 1041] |  |
| < 0.1 |  | COCCONC(=O)c1c[nH]c2cc(Cl)c(-c3ccc(C4(O)CCC4)cc3)cc12 [compound 1045] |  |
|  | > 10 | CONC(=O)c1c[nH]c2cc(Cl)c(-c3ccc(N4CCC(C)CC4)nc3OC)cc12 [compound 1049] |  |
|  | > 10 | CONC(=O)c1c[nH]c2cc(Cl)c(-c3ccc(N4CC5(CCC5)C4)nc3OC)cc12 [compound 1050] |  |
|  | > 10 | COCCN(C)c1ccc(-c2cc3c(C(=O)NOC)c[nH]c3cc2Cl)c(OC)n1 [compound 1051] |  |
|  | > 10 | CONC(=O)c1c[nH]c2cc(Cl)c(-c3ccc(N(C)CCOC(C)C)nc3OC)cc12 [compound 1052] |  |
|  | > 10 | CONC(=O)c1c[nH]c2cc(Cl)c(-c3ccc(N(C)CC4CCC4)nc3OC)cc12 [compound 1054] |  |

| Kp at 3 h [1] | EC50 (AMPK; Table A '>10 μM') [µM] | SMILES | further results |
| --- | --- | --- | --- |
|  | > 10 | CONC(=O)c1c[nH]c2cc(Cl)c(-c3ccc(N4CCC(F)(F)CC4)nc3OC)cc12 [compound 1058] |  |
|  | > 10 | COc1nc(N(C)C)ccc1-c1cc2c(C(=O)NOCCN(C)C)c[nH]c2cc1Cl [compound 1060] |  |
|  | > 10 | CONC(=O)c1c[nH]c2cc(Cl)c(-c3ccc(N(C)CCCN(C)C)nc3OC)cc12 [compound 1064] |  |
|  | > 10 | CCN(CC)c1ccc(-c2cc3c(C(=O)NOC)c[nH]c3cc2Cl)c(OC)n1 [compound 1074] |  |
|  | > 10 | CCONC(=O)c1c[nH]c2cc(Cl)c(-c3ccc(N(CC)CC)nc3OC)cc12 [compound 1075] |  |
| < 0.1 |  | CONC(=O)C(=O)c1c[nH]c2cc(Cl)c(-c3ccc(N(C)C)nc3OC)cc12 [compound 1077, 2-(6-chloro-5-(6-(dimethylamino)-2-methoxypyridin-3-yl)-1H-indol-3-yl)-N-methoxy-2-oxoacetamide] |  |
| < 0.1 |  | CCONC(=O)C(=O)c1c[nH]c2cc(Cl)c(-c3ccc(N(C)C)nc3OC)cc12 [compound 1081] |  |
| < 0.1 |  | OCC1(c2ccc(-c3cc4c(-c5nnn[nH]5)c[nH]c4cc3Cl)s2)CC1 [compound 1084] |  |
|  | > 10 | CCONC(=O)c1c[nH]c2cc(Cl)c(-c3ccc(N(C)C)nc3OC)nc12 [compound 1090] |  |
|  | > 10 | CCONC(=O)c1c[nH]c2cc(Cl)c(-c3ccc(C#N)cc3OC)cc12 [compound 1097] |  |
|  | > 10 | CCONC(=O)c1c[nH]c2cc(Cl)c(-c3ccc(C4(O)CCC4)nc3)cc12 [compound 1099] |  |
|  | > 10 | CCc1cc(N(C)C)ccc1-c1cc2c(C(=O)NOC)c[nH]c2cc1Cl [compound 1100] |  |
|  | > 10 | CCONC(=O)c1c[nH]c2cc(Cl)c(-c3ccc(C4(CO)CC4)nc3)cc12 [compound 1101] |  |
|  | > 10 | CONS(=O)(=O)c1c[nH]c2cc(Cl)c(-c3ccc(C4CCCCO4)cc3)cc12 (stereo not shown) [compound 1109, 6-chloro-N-methoxy-5-(4-(tetrahydro-2H-pyran-2-yl)phenyl)-1H-indole-3-sulfonamide] |  |
|  | > 10 | CONS(=O)(=O)c1c[nH]c2cc(Cl)c(-c3ccc(-c4ccccc4)cc3)cc12 [compound 1110, 5-([1,1′-biphenyl]-4-yl)-6-chloro-N-methoxy-1H-indole-3-sulfonamide] |  |
| < 0.1 |  | CS(=O)(=O)NC(=O)c1c[nH]c2cc(Cl)c(-c3ccc(-c4ccccc4)cc3)cc12 [compound 1112] |  |
